The values below come from patent US7241785B2, “Five-membered heterocyclic alkanoic acid derivative” (Takeda Pharmaceutical Company Limited, priority 2001, dated 2007).

pEC50: −log10 of the molar value.

Series [1] deals with KKA^y mice. Put plainly: Hypoglycemic and hypolipidemic (hypotriglyceridemic) actions in mice. The class given is in vivo. The note with it: Mus musculus, po, 96 h, 0.01% in powdery diet, four days. Here is the method: Hypoglycemic and Hypolipidemic (Hypotriglyceridemic) Actions in Mice
Test compounds were mixed in a powdery diet (CE-2, Japan Clea) at the concentration of 0.01%, and freely given to KKA^y mice (11 to 12 weeks old, 5 mice per group), a model of type 2 diabetes mellitus, for four days. During this period, water was given freely. Blood was sampled from orbital venous plexus, and glucose and triglyceride levels in plasma separated from the blood were determined enzymatically using L type Wako Glu2 (Wako Pure Chemical Industries, Ltd.) or L type Wako TG.H (Wako Pure Chemical Industries, Ltd.), respectively.
In the Table, “hypoglycemic action (%)” represents a percent reduction (%) of the blood glucose level in the treatment group when the blood glucose level in the non-treatment group is taken as 100%. In addition, “hypolipidemic action (%)” represents a percent reduction (%) of the blood triglyceride level in the treatment group when the blood triglyceride level in the non-treatment group is taken as 100%.

The subject of series [2] is KKA^y mice. In words: Total cholesterol lowering action and plasma anti-arteriosclerosis index-enhancing action in mice. The class given is in vivo. The note with it: Mus musculus, po, 96 h, 0.01% in powdery diet, four days; for change in vivo at 0.01 % in diet: percent increase of index [(HDL cholesterol/total cholesterol)×100] vs non-treatment group (100%); for inhibition in vivo at 0.01 % in diet: percent reduction of total cholesterol level vs non-treatment group (100%). The method, then:
Total Cholesterol Lowering Action and Plasma Anti-Arteriosclerosis Index-Enhancing Action in Mice
Test compounds were mixed in a powdery diet (CE-2, Japan Clea concentration of 0.01%, and freely given to KKA^y mice (11 to 12 weeks old, 5 mice per group), a model of type 2 diabetes mellitus, for four days. During this period, water was given freely. Blood was sampled from orbital venous plexus, and components in plasma separated from the blood were determined. Total cholesterol levels were determined using L type Wako Cholesterol (Wako Pure Chemical Industries, Ltd.). Precipitation reagent for HDL cholesterol was added to a part of the plasma to precipitate non-HDL lipoprotein, and cholesterol (HDL cholesterol) in the resulting supernatant was determined. The plasma anti-arteriosclerosis index [(HDL cholesterol/total cholesterol)×100] was calculated using these cholesterol levels.
In the Table, “total cholesterol lowering action (%)” represents a percent reduction (%) of the total cholesterol level in the treatment group when the total cholesterol level in the non-treatment group is taken as 100%. In addition, “plasma anti-arteriosclerosis index-enhancing action (%)” represents a percent increase (%) of the plasma anti-arteriosclerosis index in the treatment group when the plasma anti-arteriosclerosis index in the non-treatment group is taken as 100%.

A further series concerns the target T1, PPARγ-RXRα heterodimer (Homo sapiens, UniProt P37231).
T1 construct: expressed in transfected cells
T1 sequence (P37231 1-477 isoform P37231-2): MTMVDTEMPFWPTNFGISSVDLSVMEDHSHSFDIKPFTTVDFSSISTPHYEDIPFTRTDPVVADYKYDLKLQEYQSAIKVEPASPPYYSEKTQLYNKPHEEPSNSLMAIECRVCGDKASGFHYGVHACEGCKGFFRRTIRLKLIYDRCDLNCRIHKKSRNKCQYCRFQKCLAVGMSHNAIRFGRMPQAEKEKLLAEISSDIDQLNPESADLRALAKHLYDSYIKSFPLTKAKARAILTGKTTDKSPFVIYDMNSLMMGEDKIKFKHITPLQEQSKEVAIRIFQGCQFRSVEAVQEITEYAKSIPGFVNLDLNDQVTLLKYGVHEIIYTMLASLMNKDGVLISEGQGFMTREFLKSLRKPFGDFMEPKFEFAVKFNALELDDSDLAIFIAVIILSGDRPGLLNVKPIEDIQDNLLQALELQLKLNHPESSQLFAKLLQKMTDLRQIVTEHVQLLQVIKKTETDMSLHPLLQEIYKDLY
T1 sequence (P19793 1-462 partner): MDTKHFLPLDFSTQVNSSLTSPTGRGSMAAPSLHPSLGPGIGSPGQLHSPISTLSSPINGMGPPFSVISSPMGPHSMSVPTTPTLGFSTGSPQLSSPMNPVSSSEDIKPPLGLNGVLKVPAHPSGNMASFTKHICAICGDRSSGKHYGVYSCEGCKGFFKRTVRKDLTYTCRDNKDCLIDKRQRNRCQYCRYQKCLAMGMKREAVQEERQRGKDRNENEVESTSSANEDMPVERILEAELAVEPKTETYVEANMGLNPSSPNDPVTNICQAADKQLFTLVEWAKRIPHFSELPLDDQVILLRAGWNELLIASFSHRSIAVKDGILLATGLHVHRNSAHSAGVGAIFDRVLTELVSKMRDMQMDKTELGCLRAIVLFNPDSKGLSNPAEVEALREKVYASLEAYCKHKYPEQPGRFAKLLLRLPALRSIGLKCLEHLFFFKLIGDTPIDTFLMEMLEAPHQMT
In words: PPARγ-RXRα heterodimer ligand activity (luciferase reporter, PPARγ:RXRα:4ERPP/CHO-K1 cells). The class given is cell-based. The note with it: concentration for 50% of maximum fold induction of luciferase, 48 hrs. Here is the method: (PPARγ-RXRα Heterodimer Ligand Activity)
PPARγ:RXRα:4ERPP/CHO-K1 cells obtained in Reference Example 8a were cultured in HAM F12 medium (manufactured by NISSUI SEIYAKU) containing 10% fetal bovine serum [manufactured by Life Technologies, Inc., USA], seeded in a 96-well white plate [manufactured by Corning Coster Corporation, USA] at the density of 2×10^4 cells/well and cultured in a CO2 gas incubator at 37° C. overnight.
After washing the 96-well white plate with PBS (Phosphate-buffered saline), 90 μl of HAM F12 medium containing 0.1% fatty acid-free bovine serum albumin (BSA) and 10 μl of test compound were added, and the cells were cultured in a CO2 gas incubator at 37° C. for 48 hrs. The medium was removed and 40 μl of PicaGene 7.5 (manufactured by Wako Pure Chemical Industries, Ltd.) was added. After stirring, the luciferase activity was determined using Lumistar [manufactured by BMG Labtechnologies GmbH, Germany].
The fold induction was calculated from the luciferase activity of each test compound when the luciferase activity of the non-treatment group is taken as 1. The values of the test compound concentration and the fold induction were analyzed using PRISM 2.01 (produced by GraphPad Software Inc. USA) to calculate the EC50 values, the effective concentration of a test compound for 50% of the maximum fold induction.
Introduction of Human PPARγ- and RXRα-Expression Plasmid and Reporter Plasmid into CHO-K1 Cell and Establishment of Expressed Cell
After a CHO-K1 cell cultured in a tissue culture flask (750 ml) (produced by Corning Costar Corporation, USA) containing HAM F12 medium (produced by NISSUI SEIYAKU) supplemented with 10% fetal bovine serum (produced by Life Technologies, Inc., USA) was scraped by treating with 0.5 g/L trypsin-0.2 g/L EDTA (ethylenediaminetetraacetic acid) (produced by Life Technologies, Inc., USA), the cell was washed with PBS (phosphate-buffered saline) (produced by Life Technologies, Inc., USA), centrifuged (1000 rpm, 5 minutes), and then suspended in PBS. Subsequently, a DNA was introduced into the cell under the conditions shown below using GENE PULSER (produced by Bio-Rad Laboratories, USA).
Namely, to a cuvette having a 0.4 cm gap, added were 8×10^6 cells and 10 μg of plasmid pVgRXR2-hPPARγ obtained in Reference Example 7a and 10 μg of reporter plasmid pGL3-4ERPP-TK neo obtained in Reference Example 4a, which was subjected to electroporation at the voltage of 0.25 kV under the capacitance of 960 μF. Subsequently, the cell was transferred into a HAM F12 medium containing 10% fetal bovine serum and cultured for 24 hours and then the cell was scraped again and centrifuged, and then suspended in HAM F12 medium containing 10% fetal bovine serum supplemented with 500 μg/ml of GENETICIN, (produced by Life Technologies, Inc., USA) and 250 μg /ml of ZEOCIN (produced by Invitrogen, USA). The obtained suspension was diluted to the density of 10^4 cells/ml and inoculated to a 96-well plate (produced by Corning Costar Corporation, USA), which was cultured in a CO2 gas incubator at 37° C., whereby obtaining a GENETICIN- and ZEOCIN-resistant transformant.
Subsequently, after the transformant cell line thus obtained was cultured in a 24-well plate (produced by Corning Costar Corporation, USA), selected was a cell line in which the luciferase was expressed and induced, i.e., PPARγ:RXRα:4ERPP/CHO-K1 cell by the addition of 10 μM pioglitazone hydrochloride.

[3] abbreviates: percent reduction of blood glucose level vs non-treatment group (100%), read-out: Hypoglycemic action (%).
Where [4] appears, read: percent reduction of blood triglyceride level vs non-treatment group (100%), read-out: Hypolipidemic action (%).

The melting point is the temperature of the solid-liquid transition. What is called pEC50 is the negative decadic logarithm of the EC50, by convention in mol/L. Low readings indicate a high EC50, high ones a low EC50. Compound `Cc1oc(-c2ccccc2)nc1COc1ccc(COc2nn(-c3ccccc3)cc2CC(=O)O)cn1` [Example 54, [3-[6-(5-methyl-2-phenyl-4-oxazolylmethoxy)-3-pyridylmethoxy]-1-phenyl-1H-pyrazol-4-yl]acetic acid] returned a melting point of 164 to 165 °C. In addition, the inhibition in vivo at 0.01 % in diet in the series on KKA^y mice [1] (setting [3]) came to 52%. Besides, in the series on KKA^y mice [1] (setting [4]), the inhibition in vivo at 0.01 % in diet was 89%. Also, in the series on KKA^y mice [2], the change in vivo at 0.01 % in diet was 14% and the inhibition in vivo at 0.01 % in diet came out at 18%. The negative logarithm of the EC50 (pEC50) at PPARγ-RXRα heterodimer is 9.19.
Compound `COc1cc(COc2nn(-c3ccccc3)cc2CC(=O)O)ccc1OCc1nc(-c2ccccc2)oc1C` [Example 52, [3-[3-methoxy-4-(5-methyl-2-phenyl-4-oxazolylmethoxy)benzyloxy]-1-phenyl-1H-pyrazol-4-yl]acetic acid] came in with a melting point of 147 to 148 °C. In the series on KKA^y mice [1] (setting [3]), the inhibition in vivo at 0.01 % in diet is 50%. The inhibition in vivo at 0.01 % in diet in the series with KKA^y mice [1] (setting [4]) was 82%. Also, in the series on KKA^y mice [2], the change in vivo at 0.01 % in diet came out at 16% and the inhibition in vivo at 0.01 % in diet worked out at 22%. For the same compound, the pEC50 at PPARγ-RXRα heterodimer was 9.42.
